Patent US7608411B2, “Prostaglandin receptor EP1” (Ono Pharmaceutical Co., Ltd., priority 2001, dated 2009)
Residue numbers refer to the chain shown, from its start.

How the values were obtained:
[1] = target: T1, human EP1 receptor of the present invention (Homo sapiens, UniProt P34995); assay: Measurement of intracellular Ca2+ concentration in cells expressing human EP1 receptor of the present invention; format: cell-based; conditions: Fura2-AM fluorescence
T1 construct: The cDNA insert was cut off from pT7BluehEP1 by EcoR1 digestion, and inserted into EcoR1 site of expression vector pdKCR-dhfr; expressed in transfected cells; A1 used their membrane fraction, A3 used whole cells
T1 sequence (P34995 1-402): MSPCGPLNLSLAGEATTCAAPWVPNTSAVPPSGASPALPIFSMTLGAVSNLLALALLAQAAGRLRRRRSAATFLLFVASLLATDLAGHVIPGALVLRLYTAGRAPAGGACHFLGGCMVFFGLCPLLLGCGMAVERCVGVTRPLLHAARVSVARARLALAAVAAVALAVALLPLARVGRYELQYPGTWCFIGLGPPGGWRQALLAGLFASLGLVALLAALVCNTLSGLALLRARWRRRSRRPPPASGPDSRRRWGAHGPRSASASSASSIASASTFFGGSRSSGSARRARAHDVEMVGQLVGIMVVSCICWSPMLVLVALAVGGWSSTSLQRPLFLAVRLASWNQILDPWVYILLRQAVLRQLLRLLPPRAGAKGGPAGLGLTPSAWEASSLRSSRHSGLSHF
Method: (§1) The cells were cultured in 500 cm^2 treys to reach confluence, washed with PBS(−), and peeled off by pipeting with PBS(−) on ice. After centrifugation at 800 rpm for 3 minutes, the cell pellet was suspended in medium A (15 ml) and incubated at 37° C. for 50 minutes followed by at room temperature for 10 minutes. After re-centrifugation the pellet was suspended in medium B (1-2×10^6/ml) and used for experiments. In the case that cell suspension contains Fura2-AM (Dojin), the operations were shielded the light by aluminum foil. Stirring the cell suspensions (400 μl) at 600 rpm, the changes of intracellular Ca^2+ concentration were measured by monitoring the changes of fluorescence intensity at both 340 nm and 380 nm and the ratio thereof, using CAM-220 Spectrofluorometer (Nihon Bunko Kogyo).
(§2) Medium A: • α-MEM containing fura2-AM (5 μM)), indomethacin (10 μM), HEPES-NaOH (pH7.4, 10 mM) and 10% FCS,
(§3) Medium B: • α-MEM containing indomethacin (1 μM), HEPES-NaOH (pH7.4, 10 mM) and 0.1% BSA.
(§4) The changes in intracellular Ca^2+ concentration using the cells expressing human EP1 receptor of the present invention and the cells expressing human EP1 receptor described in Japanese Patent No. 3,090,472 were shown in FIG. 3. In FIG. 3, “reference” means the result obtained by using the cells expressing human EP1 receptor described in Japanese Patent No. 3,090,472.

[2] = target: T2, human EP1 receptor described in Japanese Patent No. 3,090,472 (Homo sapiens, UniProt P34995, A71T/L230H); assay: Measurement of intracellular Ca2+ concentration in cells expressing human EP1 receptor described in Japanese Patent No. 3,090,472; format: cell-based; conditions: cells expressing human EP1 receptor of Japanese Patent No. 3,090,472 (reference); Fura2-AM fluorescence
T2 construct: expressed in transfected cells; host or cells: cells expressing the receptor of JP 3,090,472
T2 sequence (P34995 1-402 A71T/L230H): T1 sequence (P34995 1-402) with A71T, L230H
Method: as §1, §2, §3, §4

[3] = target: T1, human EP1 receptor of the present invention; assay: Binding assay of [3H]-PGE2 with membrane fraction of CHO cells expressing human EP1 receptor of the present invention; conditions: nonspecific binding with 10 μM PGE2
Method: 1) Gene Transfection into CHO Cells and Isolation of Clones Expressing Human EP1 Receptor
The cDNA insert was cut off from pT7BluehEP1 by EcoR1 digestion, and inserted into EcoR1 site of expression vector pdKCR-dhfr in the proper orientation. Approximately 25-50 ug of expression plasmid was digested completely with proper restriction enzymes (SalI, SacII etc.), purified by Phenol/CIAA extraction, CIAA extraction and ethanol precipitation, and dissolved in 50 μl of sterilized water. CHO-dhfr(−) cells used as host were suspended in 1.0-1.5×10^6 cells/0.8 ml of PBSuc buffer (sucrose 272 mM, K^+PO4^2− buffer (7 mM, pH7.4) and MgCl2 (1 mM)). […]
Reaction mixtures (200 μl) containing the membrane fraction, which was prepared by the above method and contains human EP1 receptor, and various concentrations of [3H]-PGE2 were incubated at room temperature for a certain time, separated by rapid filtration using Cell Harvester (Brandel). […] Residual [3H]-PGE2 bound to the filter (total binding) was quantitated by liquid scintillation counter. Nonspecific binding was quantitated in a similar manner in the presence of 10 μM of PGE2. […]
The specific binding thus obtained was analyzed by Scatchard plots, an equilibrium dissociation constant (Kd; nM) and a maximum number of specific binding sites (Bmax; fmol/mg protein) were determined. […]

[4] = target: T2, human EP1 receptor described in Japanese Patent No. 3,090,472; assay: Binding assay of [3H]-PGE2 with cells expressing human EP1 receptor described in Japanese Patent No. 3,090,472; conditions: cells expressing human EP1 receptor of Japanese Patent No. 3,090,472 (reference)
Method: Reaction mixtures (200 μl) containing the membrane fraction, which was prepared by the above method and contains human EP1 receptor, and various concentrations of [3H]-PGE2 were incubated at room temperature for a certain time, separated by rapid filtration using Cell Harvester (Brandel). The membrane fraction was recovered on glass filter and washed several times with the buffer cooled on ice (1-2 ml/wash). Residual [3H]-PGE2 bound to the filter (total binding) was quantitated by liquid scintillation counter. Nonspecific binding was quantitated in a similar manner in the presence of 10 μM of PGE2. Specific binding was defined as the difference between total binding and nonspecific binding.
The specific binding thus obtained was analyzed by Scatchard plots, an equilibrium dissociation constant (Kd; nM) and a maximum number of specific binding sites (Bmax; fmol/mg protein) were determined. The result obtained using the cells expressing human EP1 of the present invention was shown in FIG. 1, and the result obtained using the cells expressing human EP1 described in Japanese Patent No. 3,090,472 in FIG. 2, respectively.

SMILES	PGE2 dependent elevation of intracellular Ca2+ concentration [1]	PGE2 dependent elevation of intracellular Ca2+ concentration [2]	specific binding of [3H]-PGE2 to the receptor [3]	specific binding of [3H]-PGE2 to the receptor [4]
CCCCC[C@H](O)/C=C/[C@H]1[C@H](O)CC(=O)[C@@H]1C/C=C\CCCC(=O)O [PGE2, prostaglandin E2]	detected	not detected at all		
CCCCC[C@H](O)/C=C/[C@H]1[C@H](O)CC(=O)[C@@H]1C/C=C\CCCC(=O)O [[^3H]-PGE2]			extremely high specific binding	detected
